Reference: PubChem BioAssay (NCI)
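Where inhibition never reached the appropriate level, the endpoint shown equals the highest concentration tested. Otherwise, values were interpolated linearly from a five-concentration, 48-hour dose response in 96-well plates. The concentration for full growth arrest is given as TGI.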

System: OVCAR-5 ovarian
Assay: inhibition of tumour cell growth, NCI panel, 48 h

| Compound | TGI [µM] |
| --- | --- |
| Cc1c(-c2nc(N)nc(C3CC3)c2C)nc(N)nc1C1CC1 | > 100 |
| CC(C)(C)OC(=O)c1ccc(NCc2cc(O)ccc2O)cc1 | 21.9 |
| COc1cc(/C=C/C(=O)O)ccc1OS(=O)(=O)O | > 100 |
| COc1ccc2c(c1)[C@@]13CCN4CC5=CCO[C@H]6CC(=O)N2[C@H]1[C@H]6[C@H]5C[C@H]43 | > 100 |
| CCC1C(=O)OCc2c1cc1n(c2=O)CCC12OCCO2 (stereo unspecified) | > 100 |
| O=C1NC(=S)S/C1=C/c1ccco1 | > 100 |

System: DMS 114 small cell lung
Assay: inhibition of tumour cell growth, NCI panel, 48 h

| Compound | TGI [µM] |
| --- | --- |
| CCC1C(=O)OCc2c1cc1n(c2=O)CCC12OCCO2 (stereo unspecified) | > 100 |
| O=C1NC(=S)S/C1=C/c1ccco1 | > 100 |

System: UO-31 renal
Assay: inhibition of tumour cell growth, NCI panel, 48 h

| Compound | TGI [µM] |
| --- | --- |
| Cc1c(-c2nc(N)nc(C3CC3)c2C)nc(N)nc1C1CC1 | > 100 |
| CC(C)(C)OC(=O)c1ccc(NCc2cc(O)ccc2O)cc1 | 2.51 |
| COc1cc(/C=C/C(=O)O)ccc1OS(=O)(=O)O | > 100 |
| COc1ccc2c(c1)[C@@]13CCN4CC5=CCO[C@H]6CC(=O)N2[C@H]1[C@H]6[C@H]5C[C@H]43 | > 100 |
| CCC1C(=O)OCc2c1cc1n(c2=O)CCC12OCCO2 (stereo unspecified) | > 100 |
| NC(=O)NC(=NCc1ccccc1)NCc1ccccc1 | > 100 |
| O=C1NC(=S)S/C1=C/c1ccco1 | > 100 |

System: DU-145 prostate
Assay: inhibition of tumour cell growth, NCI panel, 48 h

| Compound | TGI [µM] |
| --- | --- |
| Cc1c(-c2nc(N)nc(C3CC3)c2C)nc(N)nc1C1CC1 | > 100 |
| CC(C)(C)OC(=O)c1ccc(NCc2cc(O)ccc2O)cc1 | 43.3 |
| COc1cc(/C=C/C(=O)O)ccc1OS(=O)(=O)O | > 100 |
| COc1ccc2c(c1)[C@@]13CCN4CC5=CCO[C@H]6CC(=O)N2[C@H]1[C@H]6[C@H]5C[C@H]43 | > 100 |

System: SW-620 colon
Assay: inhibition of tumour cell growth, NCI panel, 48 h

| Compound | TGI [µM] |
| --- | --- |
| Cc1c(-c2nc(N)nc(C3CC3)c2C)nc(N)nc1C1CC1 | > 100 |
| CC(C)(C)OC(=O)c1ccc(NCc2cc(O)ccc2O)cc1 | 14.5 |
| COc1cc(/C=C/C(=O)O)ccc1OS(=O)(=O)O | > 100 |
| COc1ccc2c(c1)[C@@]13CCN4CC5=CCO[C@H]6CC(=O)N2[C@H]1[C@H]6[C@H]5C[C@H]43 | > 100 |
| CCC1C(=O)OCc2c1cc1n(c2=O)CCC12OCCO2 (stereo unspecified) | > 100 |
| NC(=O)NC(=NCc1ccccc1)NCc1ccccc1 | > 100 |
| O=C1NC(=S)S/C1=C/c1ccco1 | > 100 |

System: SR leukemia
Assay: inhibition of tumour cell growth, NCI panel, 48 h

| Compound | TGI [µM] |
| --- | --- |
| Cc1c(-c2nc(N)nc(C3CC3)c2C)nc(N)nc1C1CC1 | > 100 |
| CC(C)(C)OC(=O)c1ccc(NCc2cc(O)ccc2O)cc1 | > 34.5 |
| COc1cc(/C=C/C(=O)O)ccc1OS(=O)(=O)O | > 100 |
| COc1ccc2c(c1)[C@@]13CCN4CC5=CCO[C@H]6CC(=O)N2[C@H]1[C@H]6[C@H]5C[C@H]43 | > 100 |
| CCC1C(=O)OCc2c1cc1n(c2=O)CCC12OCCO2 (stereo unspecified) | > 100 |

System: BT-549 breast
Assay: inhibition of tumour cell growth, NCI panel, 48 h

| Compound | TGI [µM] |
| --- | --- |
| Cc1c(-c2nc(N)nc(C3CC3)c2C)nc(N)nc1C1CC1 | > 100 |
| CC(C)(C)OC(=O)c1ccc(NCc2cc(O)ccc2O)cc1 | 6.9 |
| COc1cc(/C=C/C(=O)O)ccc1OS(=O)(=O)O | > 100 |
| COc1ccc2c(c1)[C@@]13CCN4CC5=CCO[C@H]6CC(=O)N2[C@H]1[C@H]6[C@H]5C[C@H]43 | > 100 |

System: IGROV1 ovarian
Assay: inhibition of tumour cell growth, NCI panel, 48 h

| Compound | TGI [µM] |
| --- | --- |
| Cc1c(-c2nc(N)nc(C3CC3)c2C)nc(N)nc1C1CC1 | > 100 |
| CC(C)(C)OC(=O)c1ccc(NCc2cc(O)ccc2O)cc1 | 5.47 |
| COc1cc(/C=C/C(=O)O)ccc1OS(=O)(=O)O | > 100 |
| COc1ccc2c(c1)[C@@]13CCN4CC5=CCO[C@H]6CC(=O)N2[C@H]1[C@H]6[C@H]5C[C@H]43 | > 100 |
| CCC1C(=O)OCc2c1cc1n(c2=O)CCC12OCCO2 (stereo unspecified) | > 100 |
| NC(=O)NC(=NCc1ccccc1)NCc1ccccc1 | > 100 |
| O=C1NC(=S)S/C1=C/c1ccco1 | > 100 |

System: PC-3 prostate
Assay: inhibition of tumour cell growth, NCI panel, 48 h

| Compound | TGI [µM] |
| --- | --- |
| Cc1c(-c2nc(N)nc(C3CC3)c2C)nc(N)nc1C1CC1 | > 100 |
| CC(C)(C)OC(=O)c1ccc(NCc2cc(O)ccc2O)cc1 | 3.75 |
| COc1cc(/C=C/C(=O)O)ccc1OS(=O)(=O)O | > 100 |
| COc1ccc2c(c1)[C@@]13CCN4CC5=CCO[C@H]6CC(=O)N2[C@H]1[C@H]6[C@H]5C[C@H]43 | > 100 |
